Experiments:
[1] = system: apoptotic cells in thymus, kidney, skeletal muscle; experiment: Apoptosis by TUNEL / propidium iodide labeling of frozen tissue sections; format: in vivo, rat; settings: chronic doxycycline; for Fraction Of Apoptotic Cells, Thymus: tissue area of 10,000 μm^2
Procedure: A subsequent study was performed to consider the reduction of cell apoptosis after chronic MMP inhibition. In addition to the dramatic reduction of blood pressure, free radical production, membrane receptor cleavage and other pathophysiological parameters (described elsewhere) that point towards organ injury in the SHR, cell apoptosis was also considered after MMP inhibition. […] For this purpose, a novel digital technique was introduced to determine nuclear fragmentation on freshly-harvested frozen tissue sections labeled for DNA breaks with the TUNEL technique and with propidium iodide (PI) for the detection of cell nuclei (see FIG. 9). […] PI-positive nuclei (B) are used to identify the total number of cells in the fields. Their image is superimposed on the bright field image of TUNEL-positive nuclei (dark brown color in A) to determine digitally the light absorption due to the TUNEL label (shown in green in panels C) and the level of apoptosis (C).

[2] = system: plasma proteases (metallo-, serine, acid and sulfhydryl proteases); experiment: Plasma protease activity (fluorescent protease assay kit, Enzchek); format: in vivo, rat; settings: after MMP inhibition for 12 weeks, age 30 weeks
Procedure: Fresh plasma samples were frozen (−60 C) until measurements were taken. On the day of the experiment, the samples were unfrozen and tested simultaneously for overall protease activity with fluorescent protease assay kit (Enzchek, Cat #E-6638, Molecular Probes). The substrate was cleaved by a range of proteases (metallo-, serine, acid and sulfhydryl proteases). Protease activity was determined from fluorescent intensity after peptide cleavage (in fluorescent units). In another experiment, and in order to explore the utility of chronic protease inhibition, a group of mature normotensive Wistar Kyoto rats (as well as a cohort of spontaneously hypertensive rats) were treated with a broad acting metafloproteases inhibitor (doxycycline, 55 mg/liter in drinking water, average consumption ˜5.4 mg/kg/day) over a period of 12 weeks until the age of 30 weeks.

[3] = Thymus weight normalized to body weight; format: in vivo, rat; settings: chronic doxycycline, n = 5
Excerpt: The reduced apoptosis in the thymus by MMP blockade is also confirmed by direct measurements of the organ weight (shown in Table 6).

[4] = Blood cell counts (hematocrit, total leukocyte count); format: in vivo, rat; settings: for Leukocyte Count: doxycycline in drinking water
Procedure: Selected WKY and SHR were treated with doxycycline (55 mg/liter in drinking water, average consumption ˜5.4 mg/kg/day, West-Ward Pharmaceutical Corp., Eatontown, N.J.) for a period of 24 weeks. It should be noted that lower and higher concentrations are also effective. A range of effective does of about 1.0-20.0 mg/kg/day, resulting from the dissolution of about 5.5-220 mg of an MMP inhibitor per liter, may also be used to produce an effective result. Narrower ranges of MMP solute may also be used, for example, 75-180 mg, and 100 mg-150 mg. Fresh leukocytes were fixed on a blood smear in whole blood (using heparin as anticoagulant, 10 U/ml) with formalin solution and […] (10%, neutral buffered, 1 hr). Total leukocyte count was determined with a hemocytometer, and hematocrit was centrifuged in microhematocrit tubes. Neutrophils were separated in a density gradient (Histopaque-1077, Sigma Aldrich, spun at 42 g for 5 min).

[5] = WKY and SHR central hemodynamics (arterial blood pressure via femoral artery catheter, heart rate) after chronic doxycycline; format: in vivo, rat; settings: for Mean Blood Pressure: doxycycline 55 mg/liter in drinking water (~5.4 mg/kg/day); for Diastolic Blood Pressure / Heart Rate / Systolic Blood Pressure: doxycycline in drinking water; for Mean Arterial Blood Pressure during Chronic MMP Inhibition: after MMP inhibition for 12 weeks, age 30 weeks
Procedure: Selected WKY and SHR were treated with doxycycline (55 mg/liter in drinking water, average consumption ˜5.4 mg/kg/day, West-Ward Pharmaceutical Corp., Eatontown, N.J.) for a period of 24 weeks. It should be noted that lower and higher concentrations are also effective. A range of effective does of about 1.0-20.0 mg/kg/day, resulting from the dissolution of about 5.5-220 mg of an MMP inhibitor per liter, may also be used to produce an effective result. Narrower ranges of MMP solute may also be used, for example, 75-180 mg, and 100 mg-150 mg. The ileocecal portion of the mesentery was prepared as described in Delano and Schmid-Schonbein, “The Glucocorticoid and Mineralocorticoid Receptor Distribution in a Microvascular Network of the Spontaneously Hypertensive Rat.” Briefly, arterial blood pressure was recorded via a femoral artery catheter. Individual sectors of mesentery were exposed via an abdominal midline incision while superfused with Krebs-Henseleit buffer (37° C., pH=7.4). The blood pressure of WKY and SHR was reduced by doxycycline treatment as shown below in Table 1, a trend that was detectable in terms of systolic, diastolic or mean blood pressure. […] In another experiment, and in order to explore the utility of chronic protease inhibition, a group of mature normotensive Wistar Kyoto rats (as well as a cohort of spontaneously hypertensive rats) were treated with a broad acting metafloproteases inhibitor (doxycycline, 55 mg/liter in drinking water, average consumption ˜5.4 mg/kg/day) over a period of 12 weeks until the age of 30 weeks.

[6] = system: MMP-1 (collagenase-1) and MMP-9 (gelatinase B); experiment: In-vivo zymography of mesentery with fluorogenic substrate; set-up: species or system rat; settings: EDTA 5 mM applied to mesentery
Procedure: Measurement of MMP-1,9 activity was obtained by superfusion of the mesentery with fluorogenic substrate (0.5 μmol/L; catalogue number D2293, Sigma-Aldrich Inc., St. Louis, Mo.) added to the suffusate. The substrate was cleaved by MMP-1 (collagenase-1) and MMP-9 (gelatinase B). The mesentery was loaded with substrate 10 minutes prior to image collection and continuously suffused with substrate throughout the experiment. The associated fluorescence was visualized by epi-illumination at 280 nm passing through a 340 nm emission filter on a fluorescent intravital microscope (Leica), and recorded digitally for measurement of fluorescent intensity. Light intensity of the emitted fluorescent light was recorded in digital units (1-256) after subtraction of background intensity in the absence of the tissue with standardized microscope settings. Reproducibility of these measurements as determined by repeated measurements on the same specimen was within 3%.

## C[C@H]1c2cccc(O)c2C(=O)C2=C(O)[C@]3(O)C(=O)C(C(N)=O)=C(O)[C@@H](N(C)C)[C@@H]3[C@@H](O)[C@@H]21 [doxycycline]
[1]; SHR
  Fraction Of Apoptotic Cells, Kidney: 12.8 ± 5.2%
  Fraction Of Apoptotic Cells, Skeletal muscle: 1.7 ± 2.4 %
  Fraction Of Apoptotic Cells, Thymus: 13.8 ± 9.1 %
[1]; WKY
  Fraction Of Apoptotic Cells, Kidney: 5.1 ± 3.5%
  Fraction Of Apoptotic Cells, Skeletal muscle: 1.4 ± 1.3%
  Fraction Of Apoptotic Cells, Thymus: 4.7 ± 3.0%
[2]; Spontaneously Hypertensive rat
  Plasma Protease Activity During Chronic MMP Inhibition: 472 ± 24 FU
[2]; Wistar Kyoto rat
  Plasma Protease Activity During Chronic MMP Inhibition: 413 ± 40 FU
[3]; SHR
  Thymus Weight Normalized With Respect To Body Weight: 87.4 ± 3.3 mg/100 g body wt
[3]; WKY
  Thymus Weight Normalized With Respect To Body Weight: 81.4 ± 7.4 mg/100 g body wt
[4]; SHR group
  Leukocyte count after treatment as share of its usually high count: less than 50%
[4]; SHR
  Leukocyte Count: 2532 ± 574
[4]; WKY rats
  Leukocyte Count: 2737 ± 272*, **
[5]; SHR, n = 7
  Mean Blood Pressure: 126.3 ± 13.5 mmHg
[5]; SHR
  Diastolic Blood Pressure: 99.4 ± 17.3 mmHg
  Heart Rate: 398 ± 60 beats/min
  Systolic Blood Pressure: 161.9 ± 14.5 mmHg
[5]; Spontaneously Hypertensive rat
  Mean Arterial Blood Pressure during Chronic MMP Inhibition: 126.3 ± 13.5 mmHg
[5]; WKY rats, n = 6
  Mean Blood Pressure: 95.7 ± 8.5 mmHg
[5]; WKY rats
  Diastolic Blood Pressure: 77.4 ± 6.8 mmHg
  Heart Rate: 364 ± 30 beats/min
  Systolic Blood Pressure: 125.3 ± 10.6 mmHg
[5]; WKY rats, Wistar rat about 105 mmHg
  Arterial pressure after treatment, relative to the Wistar rat: < 105 mmHg
[5]; Wistar Kyoto rat
  Mean Arterial Blood Pressure during Chronic MMP Inhibition: 95.7 ± 8.5 mmHg

## O=C(O)CN(CCN(CC(=O)O)CC(=O)O)CC(=O)O [EDTA, ethylenediaminetetraacetic acid]
[6]
  Fluorescent intensity generated by the fluorogenic substrate: undetectable
